Molecular target: mitochondrial respiratory chain complex I (Homo sapiens, UniProt O75251+O75306+P03886)
Test: spectrophotometric NADH:decylubiquinone oxidation in DU145 homogenate
Format: cell-based

Chain of mitochondrial respiratory chain complex I (P03886 whole entry): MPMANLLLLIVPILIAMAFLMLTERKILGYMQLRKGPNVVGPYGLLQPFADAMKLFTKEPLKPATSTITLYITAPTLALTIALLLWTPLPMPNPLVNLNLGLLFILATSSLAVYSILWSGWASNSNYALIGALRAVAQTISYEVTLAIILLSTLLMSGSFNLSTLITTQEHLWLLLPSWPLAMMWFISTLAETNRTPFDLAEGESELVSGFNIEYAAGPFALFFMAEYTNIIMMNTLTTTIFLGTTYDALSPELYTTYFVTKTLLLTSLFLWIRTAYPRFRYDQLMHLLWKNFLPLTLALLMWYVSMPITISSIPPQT
Chain of mitochondrial respiratory chain complex I (O75306 34-463): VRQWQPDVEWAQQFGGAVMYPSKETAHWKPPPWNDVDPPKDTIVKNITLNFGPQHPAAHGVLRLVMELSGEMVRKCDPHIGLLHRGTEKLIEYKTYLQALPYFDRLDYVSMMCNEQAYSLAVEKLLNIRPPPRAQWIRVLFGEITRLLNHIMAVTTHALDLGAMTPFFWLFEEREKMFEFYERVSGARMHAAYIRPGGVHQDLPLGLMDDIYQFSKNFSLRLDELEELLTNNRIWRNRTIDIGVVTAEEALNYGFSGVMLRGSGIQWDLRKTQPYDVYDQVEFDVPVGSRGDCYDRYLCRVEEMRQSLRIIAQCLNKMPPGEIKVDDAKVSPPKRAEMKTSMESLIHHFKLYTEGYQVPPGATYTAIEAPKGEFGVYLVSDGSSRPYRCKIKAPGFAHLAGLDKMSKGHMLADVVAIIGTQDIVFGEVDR
Chain of mitochondrial respiratory chain complex I (O75251 39-213): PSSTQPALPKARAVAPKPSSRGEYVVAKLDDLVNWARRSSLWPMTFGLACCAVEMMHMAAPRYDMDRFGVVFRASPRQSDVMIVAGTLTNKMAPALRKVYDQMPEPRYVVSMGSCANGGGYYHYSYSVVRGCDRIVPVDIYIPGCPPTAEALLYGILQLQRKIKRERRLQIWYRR

`CCCCN1CCCC[C@H]1C(=O)Nc1c(C)cccc1C` [levobupivacaine] was tested, and the Ki was 600 µM.

Reference: PMC6019688 (Redox Biology, 2018)
